Data published in patent publication US8026359B2, “Fungicidal heterocyclic amines” (E.I. du Pont de Nemours and Company, priority 2007, dated 2011).

What was measured:
Assay type in all cases: in vivo
[1] = system: Erysiphe graminis f. sp. tritici; test: Test A: wheat powdery mildew, preventive spray on wheat seedlings; settings: 200 ppm, 100 = 100% disease control, 0 = no control relative to controls; for pest or weed control at 200 ppm: Blumeria graminis, 192 h, read-out: Test A disease control rating
Source text: (§1) General protocol for preparing test suspensions for Tests A-R: The test compounds were first dissolved in acetone in an amount equal to 3% of the final volume and then suspended at the desired concentration (in ppm) in acetone and purified water (50/50 mix) containing 250 ppm of the surfactant Trem® 014 (polyhydric alcohol esters). The resulting test suspensions were then used in tests A-R. In Tests A-M, compounds were sprayed as a 200 ppm test suspension (equivalent to a rate of 500 g/ha) or as a 40 ppm test suspension to the point of runoff on the test plants. In Tests N-R, compounds were sprayed as a 100 g/ha test suspension (equivalent to a rate of 100 ppm) on the test plants at an application volume of 1000 L/ha. The test suspension was sprayed to the point of run-off on wheat seedlings.

[2] = system: Puccinia recondita f. sp. tritici; test: Test B: wheat leaf rust, preventive spray on wheat seedlings; settings: 200 ppm, 100 = 100% disease control, 0 = no control relative to controls; for pest or weed control at 200 ppm: Puccinia recondita, 192 h, read-out: Test B disease control rating
Source text: as §1

[3] = system: Septoria nodorum; test: Test C: wheat glume blotch, preventive spray on wheat seedlings; settings: 200 ppm, 100 = 100% disease control, 0 = no control relative to controls; for pest or weed control at 200 ppm: Parastagonospora nodorum, 216 h, read-out: Test C disease control rating
Source text: as §1

[4] = system: Septoria tritici; test: Test D: wheat leaf blotch, preventive spray on wheat seedlings; settings: 200 ppm, 100 = 100% disease control, 0 = no control relative to controls; for pest or weed control at 200 ppm: Zymoseptoria tritici, 504 h, read-out: Test D disease control rating
Source text: as §1

[5] = system: Fusarium graminearum; test: whole plant or invertebrate; settings: for Test E disease control rating: 200 ppm, 100 = 100% disease control, 0 = no control relative to controls; for pest or weed control at 200 ppm: Fusarium graminearum, in Triticum aestivum, 192 h, read-out: Test E disease control rating
[6] = system: Botrytis cinerea; test: Test F: tomato Botrytis, preventive spray on tomato seedlings; settings: 200 ppm, 100 = 100% disease control, 0 = no control relative to controls; for pest or weed control at 200 ppm: Botrytis cinerea, 120 h, read-out: Test F disease control rating
Source text: as §1, with “tomato” for “wheat”

[7] = system: Colletotrichum orbiculare; test: Test I: cucumber Colletotrichum anthracnose, preventive spray on cucumber seedlings; settings: 100 = 100% disease control, 0 = no control relative to controls; for Test I disease control rating: 200 ppm; for pest or weed control at 200 ppm: Colletotrichum orbiculare, 144 h, read-out: Test I disease control rating
Source text: as §1, with “cucumber” for “wheat”

Compound: C[C@H](CO)Nc1nccc(-c2ccnc(Nc3cccc(F)c3)c2)n1 [Compound 57]
- Test A disease control rating [1]: 0%
- Test B disease control rating [2]: 95%
- Test C disease control rating [3]: 51%
- Test D disease control rating [4]: 9%
- Test E disease control rating [5]: 0%
- Test F disease control rating [6]: 0%
- Test I disease control rating [7]: 0%

Compound: CCNc1nccc(-c2ccnc(Nc3cccc(F)c3)c2)n1 [Compound 61]
- Test A disease control rating [1]: 0%
- Test B disease control rating [2]: 96%
- Test C disease control rating [3]: 99%
- Test D disease control rating [4]: 32%
- Test E disease control rating [5]: 0%
- Test F disease control rating [6]: 0%
- Test I disease control rating [7]: 0%

Compound: COCC(C)Nc1nccc(-c2ccnc(Nc3c(C)cccc3OC)c2)n1 (stereo not drawn) [Compound 85]
- Test A disease control rating [1]: 56%
- Test B disease control rating [2]: 94%
- Test C disease control rating [3]: 99%
- Test D disease control rating [4]: 0%
- Test E disease control rating [5]: 0%
- Test F disease control rating [6]: 93%
- Test I disease control rating [7]: 96%

Compound: Fc1cccc(Nc2cc(-c3ccnc(NC4CCCC4)n3)ccn2)c1 [Compound 62, N-cyclopentyl-4-[2-[(3-fluorophenyl)amino]-4-pyridinyl]-2-pyrimidinamine]
- pest or weed control at 200 ppm [1]: 0%
- pest or weed control at 200 ppm [2]: 94%
- pest or weed control at 200 ppm [3]: 0%
- pest or weed control at 200 ppm [4]: 14%
- pest or weed control at 200 ppm [5]: 0%
- pest or weed control at 200 ppm [6]: 0%
- pest or weed control at 200 ppm [7]: 0%

Compound: Cc1ccc2ccccc2c1Nc1cc(-c2ccnc(NC3CCOCC3)n2)ccn1 [Compound 89]
- Test A disease control rating [1]: 74%
- Test B disease control rating [2]: 95%
- Test C disease control rating [3]: 100%
- Test D disease control rating [4]: 0%
- Test E disease control rating [5]: 89%
- Test F disease control rating [6]: 99%
- Test I disease control rating [7]: 0%

Compound: COCC(C)Nc1nccc(-c2ccnc(Nc3c(F)cccc3Cl)c2)n1 (stereo not drawn) [Compound 79]
- Test A disease control rating [1]: 0%
- Test B disease control rating [2]: 99%
- Test C disease control rating [3]: 99%
- Test D disease control rating [4]: 5%
- Test E disease control rating [5]: 0%
- Test F disease control rating [6]: 94%
- Test I disease control rating [7]: 96%

Compound: COCC(C)Nc1nccc(-c2ccnc(Nc3c(C)cc(C)cc3Cl)c2)n1 (stereo not drawn) [Compound 87]
- Test A disease control rating [1]: 87%
- Test B disease control rating [2]: 95%
- Test C disease control rating [3]: 100%
- Test D disease control rating [4]: 49%
- Test E disease control rating [5]: 0%
- Test F disease control rating [6]: 96%
- Test I disease control rating [7]: 88%

Compound: COCCC(C)Nc1nccc(-c2ccnc(Nc3cccc(F)c3)c2)n1 (stereo not drawn) [Compound 84, 4-[2-[(3-fluorophenyl)amino]-4-pyridinyl]-N-(3-methoxy-1-methylpropyl)-2-pyrimidinamine]
- pest or weed control at 200 ppm [1]: 28%
- pest or weed control at 200 ppm [2]: 91%
- pest or weed control at 200 ppm [3]: 99%
- pest or weed control at 200 ppm [4]: 59%
- pest or weed control at 200 ppm [5]: 0%
- pest or weed control at 200 ppm [6]: 99%
- pest or weed control at 200 ppm [7]: 0%

Compound: Clc1cccc(Nc2cc(-c3ccnc(N[C@H]4CCOC4)n3)ccn2)c1 [Compound 72]
- Test A disease control rating [1]: 0%
- Test B disease control rating [2]: 80%
- Test C disease control rating [3]: 95%
- Test D disease control rating [4]: 11%
- Test E disease control rating [5]: 0%
- Test F disease control rating [6]: 0%
- Test I disease control rating [7]: 0%

Compound: Clc1cccc(Nc2cc(-c3ccnc(NC4CCOCC4)n3)ccn2)c1 [Compound 69, 4-[2-[(3-chlorophenyl)amino]-4-pyridinyl]-N-(tetrahydro-2H-pyran-4-yl)-2-pyrimidinamine]
- pest or weed control at 200 ppm [1]: 91%
- pest or weed control at 200 ppm [2]: 94%
- pest or weed control at 200 ppm [3]: 97%
- pest or weed control at 200 ppm [4]: 77%
- pest or weed control at 200 ppm [5]: 0%
- pest or weed control at 200 ppm [6]: 85%
- pest or weed control at 200 ppm [7]: 0%

Compound: COCC(C)Nc1nccc(-c2ccnc(Nc3c(C)ccc(Cl)c3C)c2)n1 (stereo not drawn) [Compound 92]
- Test A disease control rating [1]: 91%
- Test B disease control rating [2]: 94%
- Test C disease control rating [3]: 100%
- Test D disease control rating [4]: 65%
- Test E disease control rating [5]: 0%
- Test F disease control rating [6]: 99%
- Test I disease control rating [7]: 0%

Compound: COCC(C)Nc1nccc(-c2ccnc(Nc3ccccc3F)c2)n1 (stereo not drawn) [Compound 53]
- Test A disease control rating [1]: 88%
- Test B disease control rating [2]: 98%
- Test C disease control rating [3]: 96%
- Test D disease control rating [4]: 41%
- Test E disease control rating [5]: 0%
- Test F disease control rating [6]: 99%
- Test I disease control rating [7]: 26%

Compound: COCC(C)Nc1nccc(-c2ccnc(Nc3ccnc(Cl)c3)c2)n1 (stereo not drawn) [Compound 54]
- Test A disease control rating [1]: 0%
- Test B disease control rating [2]: 96%
- Test C disease control rating [3]: 64%
- Test D disease control rating [4]: 35%
- Test E disease control rating [5]: 0%
- Test F disease control rating [6]: 85%
- Test I disease control rating [7]: 0%

Compound: Fc1cccc(Nc2cc(-c3ccnc(N[C@H]4CCOC4)n3)ccn2)c1 [Compound 71]
- Test A disease control rating [1]: 0%
- Test B disease control rating [2]: 94%
- Test C disease control rating [3]: 99%
- Test D disease control rating [4]: 25%
- Test E disease control rating [5]: 0%
- Test F disease control rating [6]: 77%
- Test I disease control rating [7]: 46%

Compound: COCC(C)Nc1nccc(-c2ccnc(Nc3cccc(C(=O)OC)c3)c2)n1 (stereo not drawn) [Compound 52]
- Test A disease control rating [1]: 0%
- Test B disease control rating [2]: 94%
- Test C disease control rating [3]: 90%
- Test D disease control rating [4]: 31%
- Test E disease control rating [5]: 0%
- Test F disease control rating [6]: 98%
- Test I disease control rating [7]: 0%

Compound: COc1cccc(C)c1Nc1cc(-c2ccnc(NC3CCOCC3)n2)ccn1 [Compound 88]
- Test A disease control rating [1]: 99%
- Test B disease control rating [2]: 100%
- Test C disease control rating [3]: 97%
- Test D disease control rating [4]: 0%
- Test E disease control rating [5]: 91%
- Test F disease control rating [6]: 0%
- Test I disease control rating [7]: 0%

Compound: COCCCNc1nccc(-c2ccnc(Nc3cccc(F)c3)c2)n1 [Compound 64]
- Test A disease control rating [1]: 0%
- Test B disease control rating [2]: 94%
- Test C disease control rating [3]: 97%
- Test D disease control rating [4]: 95%
- Test E disease control rating [5]: 0%
- Test F disease control rating [6]: 0%
- Test I disease control rating [7]: 92%

Compound: Fc1cccc(Nc2cc(-c3ccnc(NC4CCCOC4)n3)ccn2)c1 (stereo not drawn) [Compound 75]
- Test A disease control rating [1]: 0%
- Test B disease control rating [2]: 83%
- Test C disease control rating [3]: 89%
- Test D disease control rating [4]: 28%
- Test E disease control rating [5]: 0%
- Test F disease control rating [6]: 90%
- Test I disease control rating [7]: 9%

Compound: COCC(C)Nc1nccc(-c2ccnc(Nc3c(C)cccc3C)c2)n1 (stereo not drawn) [Compound 77]
- Test A disease control rating [1]: 95%
- Test B disease control rating [2]: 99%
- Test C disease control rating [3]: 99%
- Test D disease control rating [4]: 61%
- Test E disease control rating [5]: 92%
- Test F disease control rating [6]: 88%
- Test I disease control rating [7]: 96%

Compound: Fc1cccc(Nc2ncnc(-c3ccnc(NC4CCOCC4)n3)n2)c1 [Compound 3]
- Test A disease control rating [1]: 64%
- Test B disease control rating [2]: 96%
- Test C disease control rating [3]: 100%
- Test D disease control rating [4]: 67%
- Test E disease control rating [5]: 27%
- Test F disease control rating [6]: 0%
- Test I disease control rating [7]: 94%

Compound: Fc1cccc(Nc2cc(-c3ccnc(NC4CC4)n3)ccn2)c1 [Compound 65]
- Test A disease control rating [1]: 46%
- Test B disease control rating [2]: 80%
- Test C disease control rating [3]: 96%
- Test D disease control rating [4]: 0%
- Test E disease control rating [5]: 0%
- Test F disease control rating [6]: 0%
- Test I disease control rating [7]: 83%
